Assay results published in patent US20140343001A1, “INDOLE DERIVATIVES INHIBITORS OF ENZYME LACTATE DEHYDROGENASE (LDH)” (Universitá di Pisa, priority 2011, published 2014).

Legend:
[1] = tested on: H226; test: Inhibition of tumor cell growth method (a), sulforhodamine B assay; format: cell-based; details: Homo sapiens, NCI-H226; H226, 72 hours, SRB
Procedure: (§1) The plates were incubated at 37° C. in an atmosphere composed of 95% air and 5% CO2 for 72 hours. The culture medium was then removed and the cells were fixed by addition of 50 μL of a 10% solution of trichloroacetic acid in water at 4° C. in each well. The plates were incubated at 4° C. for at least one hour, after which the colorimetric assay of sulforhodamine B (SRB) was carried out to determine the amount of biomass remaining in each well as described in previously developed methodologies [Vichai, V.; Kirtikara, K. Nat. Protoc. […] Briefly, the plates were washed several times with water and dried prior to the addition of 50 μL of a solution of dye sulforhodamine B (composed by 0.057% weight/weight of sulforhodamine B in 1% acetic acid) to each well. After 30 minutes of incubation, the unbound dye was removed by washing six times with 1% acetic acid. […] After an incubation period of 30 minutes, the absorbance in each well was read at a wavelength of 510 nm in a microplate reader. The cells treated only with vehicle consisting of a 1% solution of DMSO (vehicle) were used as control of 100% of live cells in the biomass and the wells incubated with the vehicle alone (without cells) were used to determine the baseline (0%) of live biomass. The IC50 values were calculated using the software SoftMax Pro (Molecular Devices, Sunnyvale, Calif.).

[2] = tested on: MCF-7; test: as above; format: cell-based; details: Homo sapiens, MCF7; MCF-7, 72 hours, SRB
Procedure: as §1

[3] = tested on: HeLa; test: as above; format: cell-based; details: Homo sapiens, 72 hours, SRB
Procedure: as §1

[4] = tested on: H1299; test: as above; format: cell-based; details: Homo sapiens, NCI-H1299; H1299, 72 hours, SRB
Procedure: as §1

[5] = tested on: IGROV-1; test: as above; format: cell-based; details: Homo sapiens; IGROV-1, 72 hours, SRB
Procedure: as §1

[6] = tested on: H1975; test: Inhibition of tumor cell growth method (b), CellTiter-Glo; format: cell-based; details: Homo sapiens, NCI-H1975, H1975, 72 h
Source text: (§2) CellTiter-Glo® Luminescent Cell Viability Assay (Promega) is a homogeneous method of determining the number of viable cells in culture based on quantitation of the present ATP, which indicates the presence of metabolically active cells. The homogeneous assay procedure involves addition of a single reagent (CellTiter-Glo® Reagent) directly to the cells, which leads to cell lysis and generation of a luminescent signal proportional to the amount of the ATP and the number of cells present in culture. The assay relies on the properties of a proprietary thermostable luciferase (Ultra-Glo® recombinant luciferase), which generates a luminescent signal.
(§3) After 72 h, a volume of CellTiter-Glo® Reagent equal to the volume of cell culture medium was added. The content was mixed for 2 min to induce cell lysis. The luminescence was recorded after further 10 min at RT in order to obtain a stable luminescent signal.
(§4) The IC50 was calculated using GraphPad Software.

[7] = tested on: A549 cells; test: as above; format: cell-based; details: Homo sapiens, A549, 72 h
Source text: as §2, §3, §4

[8] = tested on: HeLa cells; test: Determination of cellular production of lactate (GC/MS); format: cell-based; details: 8 hours, concentrations from 50 to 200 μM, comparable or superior to 2-DeoxGlu at 10 mM
[9] = target: T1, hLDH5 (LDH-A) (Homo sapiens, UniProt P00338); test: Enzyme inhibition of human lactate dehydrogenase isoform 5; format: biochemical; details: ranges of values, pH 7.4; for Ki: 37° C., read-out: inhibitory activity against hLDH5 (Ki)
T1 construct: purchased LEEBIO (USA)
Procedure: The compounds described in the examples were evaluated in enzymatic assays to assess its inhibitory properties against two human isoforms of lactate dehydrogenase, hLDH5 containing solely the subunit LDH-A (LEEBIO—USA), and the hLDH1 containing only the LDH subunits-B (Sigma Aldrich, USA), in order to verify the selectivity of these compounds.
(for Ki measurements). Such assays were conducted in cells containing 200 μL of a solution comprising the reagents dissolved in phosphate buffer (KH2PO4 and K2HPO4) at pH 7.4.
IC50 values were calculated as described below. […] Seven different concentrations (in duplicate for each concentration) of compound were used to generate a concentration-response curve. […] Compound solutions were dispensed in 96-well plates (8 μL), then substrate and cofactor dissolved in buffer (152 μl) and enzyme solution (40 μl) were finally added. Dilution of the enzyme stock solution was made to allow a 10% consumption of the cofactor after 15 min. The eventual background fluorescence of the tested compounds or quenching of the NADH fluorescence by the tested compounds was subtracted. In addition to the compound test wells, each plate contained maximum and minimum controls. Assay plates were incubated at room temperature for 15 min and the final measurements were performed using Victor X3 Microplates reader (PerkinElmer®) at a fluorescence emission wavelength of 460 nm (excitation at 340 nm). IC50 were generated using the curve-fitting tool of GraphPad Prism].
The resulting data of enzymatic kinetic (the constants of Michaelis-Menten) were determined by analysis of non-linear regression.

Row | IC50 [1] [µM] | IC50 [2] [µM] | IC50 [3] [µM] | IC50 [4] [µM] | IC50 [5] [µM] | IC50 [6] [µM] | IC50 [7] [µM] | Ki [9] [µM] | IC50 ([9]; room temperature, read-out: inhibitory activity against hLDH5 (IC50)) [µM] | Compound | reduction of cellular production of lactate [8]
1 | 121 | 124 | 44 | 141 | 123 | 57 | 60 | – | – | O=C(O)c1cc2c(C(F)(F)F)cc(-c3ccccc3)cc2n1O [1-hydroxy-6-phenyl-4-trifluoromethyl-1H-indol-2-carboxylic acid, reference compound] | –
2 | < 26 | < 35 | < 17 | < 40 | < 31 | ≤ 31 | ≤ 31 | 1 to 10 | – | CCOC(=O)c1cc2c(C(F)(F)F)cc(-c3ccccc3)cc2n1O [Example 1, ethyl 1-hydroxy-6-phenyl-4-(trifluoromethyl)-1H-indole-2-carboxylate] | reduce effectively cellular production of lactate
3 | – | < 17 | < 15 | – | – | ≤ 31 | ≤ 31 | 1 to 10 | – | COC(=O)c1cc2c(C(F)(F)F)cc(-c3ccc(Cl)cc3Cl)cc2n1O [Example 8, methyl 6-(2,4-dichlorophenyl)-1-hydroxy-4-(trifluoromethyl)-1H-indole-2-carboxylate] | reduce effectively cellular production of lactate
4 | – | < 17 | < 15 | – | – | – | – | – | 50 to 500 | COC(=O)c1cc2c(C(F)(F)F)cc(-c3ccc(Cl)cc3Cl)cc2n1O[C@@H]1O[C@H](CO)[C@@H](O)[C@H](O)[C@H]1O [Example 10, methyl 6-(2,4-dichlorophenyl)-1-(β-D-glucopyranosyl)oxy-4-(trifluoromethyl)-1H-indole-2-carboxylate] | –

Row | Compound | IC50 [1] [µM] | IC50 [2] [µM] | IC50 [3] [µM] | IC50 [4] [µM] | IC50 [5] [µM] | IC50 [6] [µM] | IC50 [7] [µM] | Ki [9] [µM] | IC50 ([9]; room temperature, read-out: inhibitory activity against hLDH5 (IC50)) [µM] | reduction of cellular production of lactate [8]
5 | COC(=O)c1cc2c(C(F)(F)F)cc(-c3ccccc3)cc2n1O[C@@H]1O[C@H](CO)[C@@H](O)[C@H](O)[C@H]1O [Example 3, methyl 6-phenyl-1-(β-D-glucopyranosyl)oxy-4-(trifluoromethyl)-1H-indole-2-carboxylate] | < 26 | < 35 | < 17 | < 40 | < 31 | ≤ 31 | ≤ 31 | – | – | reduce effectively cellular production of lactate
